In patent US20250144067A1, “PERSONALIZED STARVATION THERAPY FOR CANCER” (Faeth Therapeutics, Inc., priority 2021, published 2025):
Counter-ions that a name gives are not always drawn. Like-named read-outs stand apart in the source and are kept apart here. Numbered stars: 1 amine (or outer) side, 2 acyl side, 3 side chain; on linkers, the order of the positions; unused ones are H or OH. Bridge positions count the residues as written; N and C are the ends. Square brackets hold non-standard residues; d marks the D form. Ends that are not written are not given here. Peptide text beside a SMILES is read from it. * marks the point of attachment. hTyr(3S-OH,4S-OH,3'-OSO3H) = N[C@H](C(=O)O)[C@H](O)[C@@H](O)c1ccc(O)c(OS(=O)(=O)O)c1; Orn(4R-OH,5R-OH) = O=C([C@H](C[C@@H](O)[C@@H](O)N[*:3])N[*:1])[*:2]; Pro(3S-OH,4S-Me) = C[C@H]1CN[C@H](C(=O)O)[C@H]1O; X1 = CCCCCOc1ccc(-c2cc(-c3ccc(C(=O)*)cc3)no2)cc1; Gln(3R-OH) = NC(=O)C[C@@H](O)[C@H](N)C(=O)O; Hyp = O=C(O)[C@@H]1C[C@@H](O)CN1

Assays:
[1] = system: NCI-H292 lung cancer cells; test: FDA drug screening, complete media vs cholesterol-free media without statin (TABLE 1); type: cell-based, human
[2] = system: NCI-H292 lung cancer cells; test: FDA drug screening, complete media vs cholesterol-free media with simvastatin (TABLE 2); type: cell-based, human
[3] = Complete minus Cholesterol-free, >0 enhanced anti-cancer activity, about 0 neutral, <0 antagonist
[4] = NCI-H292 cells, cholesterol-free media without statin
[5] = NCI-H292 cells, drug in cholesterol-free media with simvastatin 0.04 μM
[6] = NCI-H292 cells, drug in complete media
[7] = complete media vs cholesterol-free media + simvastatin (0.04 μM), >0 enhanced anti-cancer activity, about 0 neutral, <0 antagonist
[8] = NCI-H292 cells, cholesterol-free media without statin, FDA drug library screen
[9] = NCI-H292 cells, complete media, FDA drug library screen
[10] = complete vs cholesterol-free media, greater than 0 enhanced anti-cancer activity, about 0 neutral, below 0 antagonists
[11] = NCI-H292 cells, cholesterol-free media with simvastatin 0.04 μM, cell growth value in FDA drug screen
[12] = NCI-H292 cells, complete media, cell growth value in FDA drug screen
[13] = complete media minus cholesterol-free media + simvastatin, >0 enhanced anti-cancer activity, about 0 neutral, <0 antagonist
[14] = Complete minus Cholesterol-free, greater than 0 enhanced anti-cancer activity, about 0 neutral, below 0 antagonist
[15] = NCI-H292 cells, FDA drug library screen, cholesterol-free media without statin
[16] = NCI-H292 cells, FDA drug library screen, complete media
[17] = NCI-H292 cells, FDA drug library screen, cholesterol-free media with simvastatin 0.04 μM
[18] = Complete minus Cholesterol-free, greater than 0 enhanced anti-cancer activity, about 0 neutral, below 0 antagonists
[19] = NCI-H292 cells in cholesterol-free media without statin
[20] = NCI-H292 cells in complete media
[21] = NCI-H292 cells, cholesterol-free media with simvastatin 0.04 μM, FDA drug library screen (TABLE 2)
[22] = NCI-H292 cells, complete media, FDA drug library screen (TABLE 2)
[23] = complete media minus cholesterol-free media + simvastatin (0.04 μM), >0 enhanced anti-cancer activity, about 0 neutral, <0 antagonist
[24] = NCI-H292 cells, FDA library drug in cholesterol-free media with simvastatin 0.04 μM
[25] = NCI-H292 cells, FDA library drug in complete media
[26] = complete vs cholesterol-free media, […]
[27] = complete media vs cholesterol-free media + simvastatin (0.04 μM), […]
[28] = Complete minus Cholesterol-free, […]

CN(C)C(=O)Oc1ccc[n+](C)c1.[Br-] [Pyridostigmine (bromide)]
Cholesterol-free [1]: 0.882 | Complete [1]: 0.9353 | Difference [1]: 0.05 | Cholesterol-free media + simvastatin (0.04 μM) [2]: 1.546 | Complete Media [2]: 1.09 | Difference [2]: −0.46

Clc1ccc(C(c2ccccc2Cl)C(Cl)Cl)cc1 (stereo not shown) [Mitotane]
Difference [1, 3]: −0.20 | Cholesterol-free [1, 4]: 1.108 | Complete ([1]; NCI-H292 cells, complete media): 0.9109 | Cholesterol-free media + simvastatin (0.04 μM) [2, 5]: 1.345 | Complete Media [2, 6]: 1.125 | Difference [2, 7]: −0.22

Brc1c(NC2=NCCN2)ccc2nccnc12 [Brimonidine]
Difference [1, 3]: −0.01 | Cholesterol-free [1, 8]: 0.9724 | Complete [1, 9]: 0.9659 | Cholesterol-free media + simvastatin (0.04 μM) [2, 5]: 0.9016 | Complete Media [2, 6]: 0.7279 | Difference [2, 7]: −0.17

O=C1CC2(CCCC2)CC(=O)N1CCCCN1CCN(c2ncccn2)CC1 [Buspirone (hydrochloride)]
Cholesterol-free [1, 4]: 1.286 | Complete ([1]; NCI-H292 cells, complete media): 0.8529 | Difference [1, 10]: −0.43 | Cholesterol-free media + simvastatin (0.04 μM) [2, 11]: 0.8828 | Complete Media [2, 12]: 0.9935 | Difference [2, 13]: 0.11

NC(=O)N[C@@H](CCC(=O)O)C(=O)O [Carglumic Acid]
Difference [1, 14]: −0.10 | Cholesterol-free [1, 15]: 1.036 | Complete [1, 16]: 0.9389 | Cholesterol-free media + simvastatin (0.04 μM) [2, 17]: 0.9383 | Complete Media [2, 16]: 1.207 | Difference [2, 13]: 0.27

CN(C)N(C)C(=O)[C@@]1(Cc2ccccc2)CCCN(C(=O)[C@@H](Cc2c[nH]c3ccccc23)NC(=O)C(C)(C)N)C1 [Anamorelin (hydrochloride)]
Difference [1, 18]: −0.93 | Cholesterol-free [1, 19]: 1.922 | Complete [1, 20]: 0.9877 | Cholesterol-free media + simvastatin (0.04 μM) [2, 21]: 1.088 | Complete Media [2, 22]: 1.064 | Difference [2, 23]: −0.02

Clc1ccc2nsnc2c1NC1=NCCN1 [Tizanidine (hydrochloride)]
Difference [1, 3]: 0.02 | Cholesterol-free [1, 8]: 1.07 | Complete [1, 9]: 1.09 | Cholesterol-free media + simvastatin (0.04 μM) [2, 5]: 1.174 | Complete Media [2, 6]: 0.9856 | Difference [2, 7]: −0.19

CC(C)NCC(O)COc1ccc(COCCOC(C)C)cc1.CC(C)NCC(O)COc1ccc(COCCOC(C)C)cc1.O=C(O)/C=C/C(=O)O (racemic) [(±)-Bisoprolol (hemifumarate)]
Difference [1, 3]: −0.20 | Cholesterol-free [1, 4]: 1.077 | Complete ([1]; NCI-H292 cells, complete media): 0.8813 | Cholesterol-free media + simvastatin (0.04 μM) [2, 17]: 0.9429 | Difference [2, 13]: 0.21

C[N+](C)(C)CCOP(=O)([O-])OC[C@H](O)CO [sn-Glycero-3-phosphocholine]
Difference [1, 14]: −0.10 | Cholesterol-free [1, 15]: 0.9108 | Complete [1, 16]: 0.8124 | Cholesterol-free media + simvastatin (0.04 μM) [2, 24]: 0.9593 | Complete Media [2, 25]: 0.5999 | Difference [2, 7]: −0.36

Cc1c(C(=O)NN2CCCCC2)nn(-c2ccc(Cl)cc2Cl)c1-c1ccc(Cl)cc1 [Rimonabant (Hydrochloride)]
Cholesterol-free [1, 4]: 1.291 | Complete ([1]; NCI-H292 cells, complete media): 0.882 | Difference [1, 10]: −0.41 | Cholesterol-free media + simvastatin (0.04 μM) [2, 11]: 0.8204 | Complete Media [2, 12]: 0.8385 | Difference [2, 13]: 0.02

CCCCCOc1ccc(-c2cc(-c3ccc(C(=O)N[C@H]4C[C@@H](O)[C@@H](O)NC(=O)[C@@H]5[C@@H](O)[C@@H](C)CN5C(=O)[C@H]([C@H](O)CC(N)=O)NC(=O)[C@H]([C@H](O)[C@@H](O)c5ccc(O)c(OS(=O)(=O)O)c5)NC(=O)[C@@H]5C[C@@H](O)CN5C(=O)[C@H]([C@@H](C)O)NC4=O)cc3)no2)cc1 [Micafungin (sodium)] (X1-[Orn(4R-OH,5R-OH)]T[Hyp][hTyr(3S-OH,4S-OH,3'-OSO3H)][Gln(3R-OH)][Pro(3S-OH,4S-Me)]; lactam 1-C)
Cholesterol-free [1, 8]: 1.036 | Complete [1, 9]: 1.188 | Difference [1, 26]: 0.15 | Cholesterol-free media + simvastatin (0.04 μM) [2, 24]: 2.204 | Complete Media [2, 25]: 1.774 | Difference [2, 27]: −0.43

NC(=O)NO [Hydroxyurea]
Difference [1, 18]: −0.79 | Cholesterol-free [1, 19]: 1.72 | Complete [1, 20]: 0.9327 | Cholesterol-free media + simvastatin (0.04 μM) [2, 24]: 1.418 | Complete Media [2, 25]: 1.131 | Difference [2, 7]: −0.29

Cl.N[C@H]1C(O)O[C@H](CO)[C@@H](O)[C@@H]1O (stereo partly shown) [Glucosamine (hydrochloride)]
Difference [1, 14]: −0.17 | Cholesterol-free [1, 15]: 1.116 | Complete [1, 16]: 0.9464 | Cholesterol-free media + simvastatin (0.04 μM) [2, 17]: 0.9525 | Complete Media [2, 16]: 1.178 | Difference [2, 13]: 0.23

CNC(=O)c1cc(Oc2ccc(NC(=O)Nc3ccc(Cl)c(C(F)(F)F)c3)c(F)c2)ccn1 [Regorafenib]
Difference [1, 14]: −0.09 | Cholesterol-free [1, 15]: 0.6924 | Complete [1, 16]: 0.601 | Cholesterol-free media + simvastatin (0.04 μM) [2, 5]: 1.071 | Complete Media [2, 6]: 0.8585 | Difference [2, 7]: −0.21

CN(C)c1ccc2nc3ccc(=[N+](C)C)cc-3sc2c1 [Methylene blue (trihydrate)]
Difference [1, 14]: −0.18 | Cholesterol-free [1, 15]: 0.4339 | Complete [1, 16]: 0.2574 | Cholesterol-free media + simvastatin (0.04 μM) [2, 11]: 0.3366 | Complete Media [2, 12]: 0.39 | Difference [2, 13]: 0.05

Pimavanserin tartrate
Cholesterol-free [1, 4]: 1.261 | Complete ([1]; NCI-H292 cells, complete media): 0.9005 | Difference [1, 26]: −0.36 | Cholesterol-free media + simvastatin (0.04 μM) [2, 17]: 1.092 | Complete Media [2, 16]: 0.9419 | Difference [2, 27]: −0.15

C[N+]1(CC2CC2)[C@@H]2C[C@@H](OC(=O)[C@H](CO)c3ccccc3)C[C@H]1[C@@H]1O[C@@H]12.[Br-] (stereo partly shown) [Cimetropium (Bromide)]
Cholesterol-free [1]: 0.8786 | Complete [1]: 0.8182 | Difference [1]: −0.06 | Cholesterol-free media + simvastatin (0.04 μM) [2]: 1.704 | Complete Media [2]: 1.429 | Difference [2]: −0.28

O=C(Nc1ccc(Cl)cc1)Nc1ccc(Cl)c(Cl)c1 [Triclocarban]
Difference [1, 3]: −0.05 | Cholesterol-free [1, 8]: 0.8072 | Complete [1, 9]: 0.7602 | Cholesterol-free media + simvastatin (0.04 μM) [2, 21]: 1.029 | Complete Media [2, 22]: 0.9601 | Difference [2, 23]: −0.07

COCCCN1CCC(NC(=O)c2cc(Cl)c(N)c3c2OCC3)CC1 [Prucalopride]
Difference [1, 18]: −0.49 | Cholesterol-free [1, 19]: 1.522 | Complete [1, 20]: 1.033 | Cholesterol-free media + simvastatin (0.04 μM) [2, 11]: 0.8751 | Complete Media [2, 12]: 0.9854 | Difference [2, 13]: 0.11

NCCc1c[nH]cn1.O=P(O)(O)O [Histamine (phosphate)]
Difference [1, 3]: −0.23 | Cholesterol-free [1, 4]: 1.032 | Complete ([1]; NCI-H292 cells, complete media): 0.8034 | Cholesterol-free media + simvastatin (0.04 μM) [2, 21]: 1.025 | Complete Media [2, 22]: 1.021 | Difference [2, 23]: 0.00

Angiotensin II human (acetate) (DRVYIHPF; also: acetate salt; UniProt P01019 25-32, looked up)
Difference [1, 28]: −0.23 | Cholesterol-free [1, 4]: 0.9412 | Complete ([1]; NCI-H292 cells, complete media): 0.7158 | Complete Media [2, 16]: 1.355 | Difference ([2]; complete media minus cholesterol-free media + simvastatin, […]): 0.21

Polymyxin B (Sulfate)
Difference [1, 28]: −0.03 | Cholesterol-free [1, 8]: 0.9793 | Complete [1, 9]: 0.9463 | Cholesterol-free media + simvastatin (0.04 μM) [2, 5]: 1.169 | Complete Media [2, 6]: 0.9427 | Difference [2, 27]: −0.23
